“Also recorded” adds a separate entry of the source.
Tests used:
[1] = molecular target: T1, soluble epoxide hydrolase (sEH) (Homo sapiens, UniProt P34913); experiment: Inhibition of soluble epoxide hydrolase activity; format: biochemical
T1 sequence (P34913 with tags, fused parts or gaps A5G/DEL257-257/G258W): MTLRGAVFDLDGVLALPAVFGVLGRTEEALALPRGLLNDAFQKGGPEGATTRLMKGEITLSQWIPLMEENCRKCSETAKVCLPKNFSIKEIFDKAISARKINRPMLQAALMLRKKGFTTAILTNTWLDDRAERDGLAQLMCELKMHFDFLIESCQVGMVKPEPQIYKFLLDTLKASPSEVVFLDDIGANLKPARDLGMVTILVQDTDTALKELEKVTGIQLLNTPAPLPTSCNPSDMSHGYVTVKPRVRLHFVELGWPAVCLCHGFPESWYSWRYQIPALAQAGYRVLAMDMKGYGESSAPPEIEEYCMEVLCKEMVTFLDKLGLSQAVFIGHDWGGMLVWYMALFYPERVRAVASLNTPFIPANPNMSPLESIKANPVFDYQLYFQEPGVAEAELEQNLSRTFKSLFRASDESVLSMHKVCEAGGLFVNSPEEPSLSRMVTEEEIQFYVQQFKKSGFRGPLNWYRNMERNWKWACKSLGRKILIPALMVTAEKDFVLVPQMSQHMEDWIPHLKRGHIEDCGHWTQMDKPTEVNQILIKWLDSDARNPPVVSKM
Text: Any of a number of standard assays for determining epoxide hydrolase activity can be used to determine inhibition of sEH. For example, suitable assays are described in Gill, et al., Anal Biochem 131, 273-282 (1983); and Borhan, et al., Analytical Biochemistry 231, 188-200 (1995)). Suitable in vitro assays are described in Zeldin et al., J. Biol. Chem. 268:6402-6407 (1993). Suitable in vivo assays are described in Zeldin et al., Arch Biochem Biophys 330:87-96 (1996). […]
The enzyme also can be detected based on the binding of specific ligands to the catalytic site which either immobilize the enzyme or label it with a probe such as dansyl, fluoracein, luciferase, green fluorescent protein or other reagent. […] The enzyme also can be detected based on the generation of fluorescent products following the hydrolysis of the epoxide. […]

Metabolic stability = format: in vitro ADME
[2] = system: TAC-mice (thoracic aortic constriction, cardiac hypertrophy); experiment: Thoracic aortic constriction (TAC) mouse model of pressure overload cardiac hypertrophy; format: in vivo, mouse (C57B1/6J); conditions: for Hypertrophic response, H&E-stained histologic sections (FIG. 2): 3 weeks, compound 950 15 mg/kg twice a day, AUDA-BE 3 mg/kg twice a day, in drinking water; for Cardiac hypertrophy after drug treatment: sEH inhibitor in drinking water for three weeks
Experimental: Ascending aortic constriction was performed in 8-week-old male C57B1/6J mice (Charles River, Wilmington, Mass.). Animals were anesthetized with intraperitoneal ketamine 50 mg/kg and xylazine 2.5 mg/kg, and aortic constriction was created via a left thoracotomy by placing a ligature securely around the ascending aorta and a 26-gauge needle and then removing the needle. Immediately after the surgery, animals with ascending aortic stenosis were randomized and placed in one of the following regimens for three weeks: (a) compound 950 in drinking water ([…]), (b) AUDA-BE in drinking water, or (c) no drug. Age-matched animals served as controls.
To assess systolic function, echocardiograms were performed using M-mode and two-dimensional measurements as described previously. The measurements represented the average of six selected cardiac cycles from at least two separate scans performed in random-blind fashion with papillary muscles used as a point of reference for consistency in level of scan. End diastole was defined as the maximal left ventricle diastolic dimension and end systole was defined as the peak of posterior wall motion. Fractional shortening (FS), a surrogate of systolic function, was calculated from left ventricle dimensions as follows: FS=((EDD−ESD)/EDD)×100%.
To compare myocyte size, hearts were removed and rinsed for 1 minute in 0.1 mol/L phosphate buffered saline (PBS) with 50 mmol/L KCl (pH 7.2) and subsequently fixed overnight at 4° C. in 4% paraformaldehyde prepared in PBS. Vibratome sections (100 μm) from similar areas of the left ventricles were stained in a 1:20 dilution of rhodamine phalloidin (Molecular Probes, Inc., Eugene, Oreg.) and imaged with a BioRad MRC1000 confocal scanning laser microscope (BioRad Laboratories, Hercules, Calif.). A minimum of 5 optical sections was collected from the free wall of the left ventricle of each animal with a Zeiss 60× NA 1.4 lens. All images used for myocyte measurements were collected with identical laser, iris, gain, and black level operating parameters. Myocyte widths were measured parallel to the direction of the sarcomeres from unbranched regions of the myocytes near an intercalated disk with the length/profile function. Data sets were then compared using Student t tests.
Thoracic aortic constrictions (“TACs”) were created in 8-week-old male C57B1/6J mice as described in Example 1, above, resulting in a chronic pressure overload induced cardiac hypertrophy. TAC-mice were randomized to receive either no therapy or one of two exemplar sEH inhibitors (compound 950 and AUDA-BE) in drinking water for a period of three weeks. […] This effect is independent of the anti-hypertensive action of the drugs, since the hearts were constantly exposed to the high afterload created by the aortic constriction.
All the mice were sacrificed at three weeks after the TAC was created.
FIG. 2 further compares hematoxylin and eosin (“H&E”)-stained histologic section of a sham-operated heart and of TAC-mouse hearts with or without sEHI treatment. […] We further assessed the chamber size and wall thickness in untreated TAC-mice compared to treated TAC-mice using echocardiography.

[3] = system: neonatal mouse cardiac myocytes; experiment: Angiotensin II induced hypertrophy of primary neonatal mouse cardiac myocytes in culture; format: cell-based, mouse (C57B1/6J); conditions: 48 hours of treatment with ANG II
Experimental: Single cardiac myocytes were isolated from 5 day old neonatal mice (C57B1/6J) as previously described (Nuss & Marban, J. Physiol. 479 (Pt 2):265-79 (1994); Chiamvimonvat et al., J. Physiol. 483 (Pt 2):307-18 (1995)). Mice were anesthetized with pentobarbital (40 mg/kg) intraperitoneally. Animals were sacrificed by decapitation and hearts excised under sterile conditions into a filter sterilized (0.2 μm) nominally Ca^2+-, bicarbonate-free Hanks HEPES-buffered solution, pH 7.4 at room temperature. Atrial and great vessel tissues were carefully removed. The ventricles were washed and minced in this Ca^2+-free buffered solution containing trypsin (Difco®, BD Diagnostic Systems, Sparks Md., 1.5 mg/ml), DNase (1 ml/100 ml of the enzyme solution). The tissues were then incubated with 2 ml of the enzyme solution and stirred continuously at 37° C. The supernatant was removed and the enzyme solution replaced at five-minute intervals. The supernatant obtained after the first 15 minutes was discarded. Thereafter, the supernatant was diluted 1:1 in bovine calf serum. The cells were centrifuged at 2000 r.p.m. for three minutes and resuspended in MEM culture medium (Invitrogen, Carlsbad, Calif.) containing 5% bovine calf serum (Invitrogen), penicillin G (sodium) and vitamin B12. The viability of the cells was assessed using the trypan blue dye exclusion test. […]

[4] = system: TAC-mice (thoracic aortic constriction, cardiac hypertrophy); experiment: Thoracic aortic constriction (TAC) mouse model of pressure overload cardiac hypertrophy; format: in vivo, mouse (C57B1/6J); conditions: after 3 and 6 weeks of follow up

| Structure (SMILES) | Activity as inhibitor of sEH [1] | Metabolic stability (Metabolic stability) | Hypertrophic response, H&E-stained histologic sections (FIG. 2) [2] | Cardiac hypertrophy after drug treatment [2] | Cell size of neonatal cardiac myocytes, ANG II plus compound versus ANG II alone [3] | Development of cardiac hypertrophy and failure, M-mode echocardiography (FIG. 3) ([2]; after three weeks of treatment) | Cardiac hypertrophy, whole hearts (FIG. 1) ([2]; drinking water three weeks, sacrificed at three weeks after TAC) | Loss of organization of the myofibrils (myofibril disarray), anti-alpha actinin immunofluorescence (FIG. 4) ([2]; left ventricle sections, three weeks) | Development of cardiac hypertrophy and failure, echocardiography [4] |
| --- | --- | --- | --- | --- | --- | --- | --- | --- | --- |
| CCCCCCCCCCCCNC(=O)NC12CC3CC(CC(C3)C1)C2 [ADU, N-Adamantyl-N′-dodecyl urea] | particularly high activity on sEH | metabolically stable | – | – | – | – | – | – | – |
| CCCCOC(=O)CCCCCCCCCCCNC(=O)NC12CC3CC(CC(C3)C1)C2 [AUDA-BE, 12-(3-Adamantan-1-yl-ureido)dodecanoic acid butyl ester] | – | – | prevents the development of cardiac hypertrophy; also recorded: completely prevented | almost complete resolution of cardiac hypertrophy | – | – | – | – | – |
| CCOCCOCCOCCCCCNC(=O)NC12CC3CC(CC(C3)C1)C2 [compound 950, Adamantan-1-yl-3-{5-[2-(2-ethoxyethoxy)ethoxy]pentyl}urea] | – | – | prevents the development of cardiac hypertrophy; also recorded: completely prevented | almost complete resolution of cardiac hypertrophy | significant differences in the cell size | completely prevented the development of cardiac hypertrophy and failure | no evidence of cardiac hypertrophy | effects were prevented | can prevent the development of cardiac hypertrophy and failure |
